One data set concerns SOD1-G93A TGN mice. In words: Clinical assessment (gait/stride length, onset, end stage) of SOD1-G93A TGN mice treated from presymptomatic stage. The data set is classed as in vivo, mouse. The following applies: treatment from 7 weeks; for Mortality: age at death; for Onset of Motor Deficits: age at onset. As to the method: FIG. 6. Noscapine-MK801 combination delays onset of disease and death in SOD1-G93A TGN mice. The one and two-drug treatments were started at an early (i.e., presymptomatic) stage of disease (7 weeks). […] Mice received noscapine intraperitoneally and MK-801 in drinking water.
Female SOD-1 G93A TGN mice were obtained from Jackson laboratory (strain #2726). The controls were matched litter mates. Treatment groups were three per group. Noscapine was injected intraperitoneal in the thigh 3 times/week (0.2 mg/kg i.p.) and MK801 was administered continuously in drinking water (12 mg/kg/d). Gait analysis was done by the method of Wooley et al., Muscle Nerve 2005 32(1):43-50 and Carter et al. J. Neurosci., 19(8):3248-3257, hereby incorporated by reference in their entirety.
For clinical assessment endpoints scoring was selected as follows:
GROUP CLASSIFICATION: Presymptomatic
Clinical signs: Full mobility and no observable difference in behavior from age-matched controls (Gait or stride length analysis).
GROUP CLASSIFICATION: Onset
Clinical signs: Abnormal Gait or stride length analysis and hindlimb weakness: >40% reduction in stride length vs. age-matched littermates.
GROUP CLASSIFICATION: End Stage (euthanization)
Clinical signs: noticeable and complete hind limb paralysis (which in this strain occurs more on one limb than the other) and inability to right themselves in 5 sec time window. This stage starts usually as the mice are failing the gait analysis test and enter the End stage. Therefore, Transgenic SOD1-G93A TGN mice are euthanized at the onset of noticeable and complete hindlimb paralysis and inability to right themselves in 5 sec time window.

Data set [1] relates to MT-mediated fast axonal transport. As to the kind of experiment: MT-mediated fast axonal transport of 2H-label neuregulin-1 and chromogranin-B synaptic vesicle cargo (CSF secretion, spinal cord retention). The data set is classed as in vivo, mouse. The following applies: 13 weeks SOD1 G93A mice; 3 weeks treatment, 100 mg/kg/d and 200 mg/kg/d. As to the method:
After 3 weeks of treatment with MTMA noscapine (100 mg/kg/d and 200 mg/kg/d) an intraperitoneal pulse dose of 30-35 ml/kg ^2H2O CSF was given and CSF as well as spinal cord lumbar region were collected from 13 weeks wild type (WT) and symptomatic SOD1 G93A mice at 24, 48 and 72 h, respectively. CSF secretion rates and neuronal kinetic of retention of ^2H-label neuregulin-1 [NeuR-1] or ^2H-label chromogranin-B [Chr-B] containing synaptic vesicles were measured as described above (FIGS. 23 and 24). […] Neuroprotective actions of agents are evaluated by comparing their ability to normalize the time course, extent or pattern of appearance of labeled secreted synaptic vesicle “cargo” molecules in the body fluid or tissue sampled
As detailed in FIG. 25 (A) transgenic SOD G93A mice (representing an animal model of ALS), are given heavy water (^2H2O), to label secreted molecules in motor neurons (n=30 mice total). […] Protein-derived amino acids were derivatized to pentafluorobenzyl derivatives, and ^2H incorporation in alanine released from neuregulin-1 were measured by GC/MS. […] Protein-derived amino acids are derivatized to pentafluorobenzyl derivatives, and ^2H incorporation from ^2H2O into derivatized-alanine is measured by GC/MS, as described in detail elsewhere [Fanara, P. et al. In vivo measurement of microtubule dynamics using stable isotope labeling with heavy water. […]

The conditions of data set [2]: in vivo; cited from earlier work.

The text below walks through data of patent US20110076236A1, “COMPOSITIONS AND METHODS OF TREATMENT USING MODULATORS OF MOTONEURON DISEASES” (Kinemed, Inc., priority 2008, published 2011).

Structures are written as SMILES. Entries after “also recorded” stand apart in the source; their conditions may differ.

Regarding `COc1ccc2c(c1OC)C(=O)O[C@@H]2[C@H]1c2c(cc3c(c2OC)OCO3)CCN1C` [Noscapine, noscapine], in the data set with SOD1-G93A TGN mice, the Mortality was in the range of 112 to 119 days and the “Onset of Motor Deficits” value was in the range of 98 to 105 days. Besides, the “fast axonal transport of 2H-label neuregulin-1 and chromogranin-B containing synaptic vesicles” value in data set [1] is “normalized MT-mediated fast axonal transport rates; also recorded: improves this delayed fast axonal transport”. For the same compound, in data set [2], the “blood brain barrier penetration” value is “penetrates the blood brain barrier”; the “half-life in CNS tissue (brain and spinal cord) and PNS” value is given as “long half-life”.
On to `C[C@]12N[C@H](Cc3ccccc31)c1ccccc12` [MK-801, Dizocilipine], for which, in the data set with SOD1-G93A TGN mice, the Mortality lay in the range of 112 to 119 days and the “Onset of Motor Deficits” value fell in the range of 105 to 112 days.
